Patent US20220298493A1, “INACTIVATION PROCESS FOR VIRUSES” (priority 2019, published 2022)
Read-outs that look alike come from different tables or passages of the source.

Test system: Chikungunya virus
Details: 200 ppm formaldehyde, 22° C.

## C=O [formaldehyde]
After ~9 h
  reduction of virus titer (TCID50): 99%
After ~15 h
  reduction of virus titer (TCID50): 99.9%
